What all share (format): cell-based
Data set [1] has as its system Human aortic SMCs. Briefly: Morphological analysis of human aortic SMCs after one day incubation with drug. The note with it: FIG. 12; for morphological changes observed in a 40× microscope field: one day incubation, 100 nM and 500 nM TSA, 10 nM RPM, 50 nM Paclitaxel. As for the experimental part: (§1) Human aortic SMCs were obtained from BioWhittaker Molecular Applications, Inc. (Clonetics, CC-2571), cultured in Smooth Muscle Medium-2 (BioWhittaker Molecular Applications, Inc., CC-3182), and maintained at 37° C. in humidified 95% air/5% CO2. Human aortic SMCs of passages 8-9 were used in the following experiments.
(§2) Human aortic SMCs cells were seeded, at a density of 6×10^3 cells/well, in a 24-well plate (about 3×10^3 cells/cm^2, quadruplicates). Following cell attachment for 24 hours, the above drugs were added to the cells, to achieve the following final concentrations: 100 nM and 500 nM of TSA, 10 nM of RPM, and 50 nM of Paclitaxel.
Following a one day incubation with the drug, the morphological changes in the cells were evaluated under a microscope.

Data set [2] concerns Human aortic SMCs. Kind of data set: MTT assay of cell proliferation. As for the experimental part: as §1
(§3) Cell proliferation was measured by MTT assay and cell counting.
as §2
Following three additional days of incubation, 50 μl MTT (methylthiazoletetrazolium, 5 mg/ml in sterile H2O) were added in 0.5 ml medium to each well, and the cells were incubated at 37° C. for 4 hours. The medium was then aspirated, and the cells were dissolved in 300 μl 0.1 N HCl/isopropanol, mixed thoroughly, and a 100 μl portion of the mixture was transferred into a 96-well plate;
The 96-well plate was applied to a micro-plate reader and the absorbance at 570 nm was read. The average reading of wells containing only medium was set as the Control. For each sample, the proliferation rate was determined by the following equation: (Reading/Control)×100=Proliferation Rate (% of Control).
(In general: Tetrazolium assays rely on reduction of a dye to a coloured formazan, in cell work by metabolically active cells.)

Data set [3] relates to Human aortic SMCs. Kind of data set: Cell counting (growth curves). The note with it: 50 nM TSA; days 0-14, medium with TSA replaced every 2-3 days; vs control cells; FIG. 14. As for the experimental part:
as §1, §3
Human aortic SMCs cells were seeded, at a density of […], in a 24-well plate (about 1.5×10^3 cells/cm^2, in triplicates). Following cell attachment for 24 hours, TSA was added to achieve a final concentration of 50 nM.
Every 2-3 days, the medium was removed and replaced with a fresh medium containing TSA. Control cells were treated with medium without TSA.
On days 0, 1, 2, 3, 6, 9, and 14 post-treatment, the cells were trypsinized and counted with a hemacytometer.

Turning to `CC(=O)O[C@H]1C(=O)[C@@]2(C)[C@H]([C@H](OC(=O)c3ccccc3)[C@]3(O)C[C@H](OC(=O)[C@H](O)[C@@H](NC(=O)c4ccccc4)c4ccccc4)C(C)=C1C3(C)C)[C@]1(OC(C)=O)CO[C@@H]1C[C@@H]2O` [Paclitaxel], the “morphological changes observed in a 40× microscope field” value in data set [1] was “Rounded up pro-apoptotic cells appeared”. The “cytotoxicity on SMCs” value in data set [2] (50 nM Paclitaxel, before the application of MTT assay) is “high cytotoxicity on SMCs and caused cell death”.
Turning to `CC(/C=C/C(=O)NO)=C\[C@@H](C)C(=O)c1ccc(N(C)C)cc1` [TSA, Trichostatin A], the “continuous effect on SMCs growth (growth curves, cell counting)” value in data set [3] is “significant inhibitory effect”. Also, the “nature of the inhibitory effect on SMCs” value in data set [1] (concluded from the morphological analysis) is reported as “mainly cytostatic”. Also, in data set [1], the “morphological changes observed in a 40× microscope field” value is recorded as “No morphological changes”. In data set [2] (100 nM TSA and 500 nM TSA, four days incubation, FIG. 13), the “inhibitory effect on the growth of the human SMCs (proliferation rate, MTT)” value is “inhibits SMC proliferation in vitro in a dose-dependent mainer”.

These data come from patent US20050065596A1, “Stents capable of controllably releasing histone deacetylase inhibitors” (priority 2002, published 2005).
